Assay results: PubChem BioAssay (NCI)
Values joined by “and” are separate entries in the source; they are usually repeats but may differ in a detail not shown here. Identical values can stand only once.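 Following 48 hours of exposure in 96-well plates, responses at five concentrations were used to interpolate endpoints linearly. GI50 = concentration required for 50% inhibition of growth. TGI: concentration producing complete growth inhibition.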

What was measured:
Experiment in all cases: inhibition of tumour cell growth, NCI panel, 48 h
[1] = tested on: T-47D breast
[2] = tested on: IGROV1 ovarian
[3] = tested on: SK-MEL-2 melanoma
[4] = tested on: CCRF-CEM leukemia
[5] = tested on: SW-620 colon
[6] = tested on: LOX IMVI melanoma
[7] = tested on: HCT-116 colon
[8] = tested on: SR leukemia
[9] = tested on: HCC-2998 colon
[10] = tested on: DU-145 prostate
[11] = tested on: SF-268 CNS
[12] = tested on: SF-539 CNS
[13] = tested on: NCI-H23 lung
[14] = tested on: KM12 colon
[15] = tested on: HCT-15 colon
[16] = tested on: UACC-257 melanoma
[17] = tested on: NCI-H522 lung
[18] = tested on: MCF7 breast
[19] = tested on: ACHN renal
[20] = tested on: SK-MEL-28 melanoma
[21] = tested on: SK-OV-3 ovarian
[22] = tested on: SF-295 CNS
[23] = tested on: UACC-62 melanoma
[24] = tested on: RXF 393 renal
[25] = tested on: CAKI-1 renal
[26] = tested on: A498 renal
[27] = tested on: HT29 colon
[28] = tested on: SNB-75 CNS
[29] = tested on: RPMI-8226 leukemia
[30] = tested on: COLO 205 colon
[31] = tested on: HOP-62 NSCLC
[32] = tested on: A549 NSCLC
[33] = tested on: SNB-19 CNS
[34] = tested on: MOLT-4 leukemia
[35] = tested on: OVCAR-4 ovarian
[36] = tested on: BT-549 breast
[37] = tested on: OVCAR-8 ovarian
[38] = tested on: M14 melanoma
[39] = tested on: HOP-92 NSCLC
[40] = tested on: NCI-H460 lung
[41] = tested on: HL-60(TB) leukemia
[42] = tested on: MDA-MB-435
[43] = tested on: MALME-3M melanoma
[44] = tested on: OVCAR-5 ovarian
[45] = tested on: UO-31 renal
[46] = tested on: K-562 leukemia
[47] = tested on: OVCAR-3 ovarian
[48] = tested on: NCI/ADR-RES ovarian
[49] = tested on: EKVX NSCLC
[50] = tested on: SK-MEL-5 melanoma
[51] = tested on: SN12C renal
[52] = tested on: TK-10 renal
[53] = tested on: U251 CNS
[54] = tested on: PC-3 prostate
[55] = tested on: MDA-MB-231 breast
[56] = tested on: 786-0 renal
[57] = tested on: HS 578T breast
[58] = tested on: NCI-H226 lung

What does the source list for `C[C@]12CC[C@H](OC3OC(O)C(O)C(O)C3O)C=C1CCC1C2CC[C@]2(C)[C@@H](c3ccc(=O)oc3)CC[C@]12O` (stereo not given in full)?
GI50 [1]: 4.04 nM and 5 nM; TGI [1]: 19.8 nM and 16.6 nM; GI50 [2]: 4.64 nM and 5 nM; GI50 [3]: 3.53 nM and 7.62 nM; TGI [3]: 10.3 nM and 17.7 nM; GI50 [4]: 5 nM; TGI [4]: 50000 nM; GI50 [5]: 4.45 nM and 5 nM; TGI [5]: 25.4 nM and 15.4 nM; GI50 [6]: 3.33 nM and 5 nM; TGI [6]: 12 nM and 7.7 nM; GI50 [7]: 3.62 nM and 5 nM; TGI [7]: 11.9 nM and 6.71 nM; GI50 [8]: 2.21 nM; TGI [8]: 6.19 nM; GI50 [9]: 4.67 nM and 5 nM; TGI [9]: 25.2 nM and 16.5 nM; GI50 [10]: 2.77 nM; TGI [10]: 6.98 nM; GI50 [11]: 3.73 nM and 5 nM; TGI [11]: 12.8 nM and 6.07 nM; GI50 [12]: 2.62 nM and 5 nM; TGI [12]: 6.21 nM and 5.68 nM; GI50 [13]: 2.93 nM; TGI [13]: 11.4 nM; GI50 [14]: 4.87 nM and 5 nM; TGI [14]: 25.8 nM and 26.6 nM; GI50 [15]: 4.65 nM and 5 nM; TGI [15]: 21.8 nM and 15.5 nM; GI50 [16]: 10.6 nM and 5.17 nM; TGI [16]: 24.2 nM and 11.5 nM; GI50 [17]: 2.86 nM; TGI [17]: 11.4 nM; GI50 [18]: 3.42 nM and 5 nM; TGI [18]: 65.4 nM and 14.4 nM; GI50 [19]: 3.49 nM and 5 nM; TGI [19]: 11.9 nM and 5.78 nM; GI50 [20]: 5.85 nM and 6.06 nM; TGI [20]: 20 nM and 13.8 nM; GI50 [21]: 3.65 nM and 5 nM; TGI [21]: 12 nM and 6.59 nM; GI50 [22]: 3.16 nM and 5 nM; TGI [22]: 80.9 nM and 13 nM; GI50 [23]: 6.26 nM and 7.83 nM; TGI [23]: 21.4 nM and 17.6 nM; GI50 [24]: 1.79 nM; TGI [24]: 3.9 nM; GI50 [25]: 3.57 nM and 5 nM; TGI [25]: 24.8 nM and 17.3 nM; GI50 [26]: 3.45 nM and 5 nM; TGI [26]: 48.3 nM and 23.7 nM; GI50 [27]: 4.52 nM and 5 nM; TGI [27]: 17.6 nM and 9.16 nM; GI50 [28]: 3.21 nM and 5 nM; TGI [28]: 15.7 nM and 6.16 nM; GI50 [29]: 4.39 nM; TGI [29]: 74.8 nM; GI50 [30]: 15.3 nM and 7.93 nM; TGI [30]: 35.8 nM and 17.1 nM; GI50 [31]: 1.78 nM; TGI [31]: 3.28 nM; GI50 [32]: 1.78 nM; TGI [32]: 3.58 nM; GI50 [33]: 6.88 nM and 5 nM; TGI [33]: 50.6 nM and 28.7 nM; GI50 [34]: 2.34 nM; TGI [34]: 5.3 nM; GI50 [35]: 2.98 nM; TGI [35]: 16.7 nM; GI50 [36]: 3.59 nM and 5 nM; TGI [36]: 11.8 nM and 6.59 nM; GI50 [37]: 3.67 nM and 5 nM; TGI [37]: 16.8 nM and 7.2 nM; GI50 [38]: 14.8 nM and 9.18 nM; TGI [38]: 29.9 nM and 19.9 nM; GI50 [39]: 3.94 nM and 7.24 nM; TGI [39]: 34.2 nM and 29.2 nM; GI50 [40]: 2.42 nM and 5 nM; TGI [40]: 6.33 nM and 5.12 nM; GI50 [41]: 2.27 nM; TGI [41]: 5.12 nM; GI50 [42]: 4.03 nM and 5.78 nM; TGI [42]: 21.2 nM and 19.2 nM; GI50 [43]: 3.28 nM and 5 nM; TGI [43]: 9.89 nM and 11.8 nM; GI50 [44]: 8.01 nM and 5 nM; TGI [44]: 25.2 nM and 11.9 nM; GI50 [45]: 4.64 nM and 5 nM; TGI [45]: 16.8 nM and 8.11 nM; GI50 [46]: 4.06 nM; TGI [46]: 18.1 nM; GI50 [47]: 3.8 nM and 5 nM; TGI [47]: 12.1 nM and 6.38 nM; GI50 [48]: 2.64 nM and 5 nM; TGI [48]: 7.55 nM and 6.47 nM; GI50 [49]: 2.86 nM and 5 nM; TGI [49]: 9.07 nM and 5.58 nM; GI50 [50]: 1.96 nM and 5 nM; TGI [50]: 4.28 nM and 6.32 nM; GI50 [51]: 3.04 nM and 5 nM; TGI [51]: 17 nM and 9.65 nM; GI50 [52]: 5.08 nM; TGI [52]: 42.2 nM; GI50 [53]: 3.82 nM and 5 nM; TGI [53]: 14.1 nM and 9.03 nM; GI50 [54]: 3.84 nM; TGI [54]: 22.1 nM; GI50 [55]: 19.4 nM and 15.6 nM; TGI [55]: 100 nM and 60.2 nM; GI50 [56]: 2.59 nM and 5 nM; TGI [56]: 7 nM and 5.73 nM; GI50 [57]: 2.24 nM; TGI [57]: 50.6 nM; GI50 [58]: 2.62 nM and 5.27 nM; TGI [58]: 8.62 nM and 11.3 nM
